According to patent publication US6814952B2, “Diagnostic imaging agent useful for selecting a therapy for cancerous bone metastasis” (Nihon Medi-Physics Co., Ltd., priority 2001, dated 2004):

Key:
osteoclast [1] = test: Uptake by osteoclast (cellular uptake experiment); type: cell-based, mouse
Description: (§1) Osteoblast was isolated from the parietal bone of a newborn mouse by means of stepwise enzyme digestion according to a method described by Takahashi et al. (Takahashi et al., Endocrinology, 123: 2600-2602 (1988)), and cultured using α-MEM (10% fetal calf serum) for 6 to 8 days for use in the following experiments. Furthermore, osteoclast was obtained by co-culturing osteoblastic cells and bone marrow cells for 6 to 8 days using α-MEM (10% fetal calf serum, 10^−8 M vitamin D3, pH 6.2) on a collagen-coated dish according to a method described by Takahashi et al. (Takahashi et al., Endocrinology, 122: 1373-1382 (1988)). The osteoclast was identified by means of tartaric acid-resistant acidic phosphatase dyeing.
Experiment of uptake by cells: The osteoblast or the co-cultured osteoclast was isolated using 35% Percoll and incubated using α-MEM (10% fetal calf serum) at 37° C. in an atmosphere of 5% CO2 and 95% air for 3 hours. The incubated cells were washed with an incubation buffer of pH 7.4 (10 mM HEPES, 5 mM glucose, 150 mM NaCl, 5 mM KCl, 1.8 mM MgSO4, 1 mM CaCl2) three times, and pre-incubated using the same buffer at 37° C. for 30 minutes. Then, the cells in incubation buffer containing ^99mTc(V)-DMS at a concentration of 129.5 kBq/mL were allowed to infiltrate, and washed with the ice-cooled incubation buffer three times, 5, 10, 30 and 60 minutes later. Then, the cells were lysed with 0.2N NaOH, and radioactivity taken up by the cells was measured using a gamma counter. After completion of the radioactivity measurement, the amount of proteins contained in the cell lysate was measured using BCA Protein Assay Kit (produced by Pierce), and the ^99mTc-DMS uptake per unit protein mass (% dose/mg protein) was obtained. As to ^99mTc-HMDP, a similar experiment was carried out for comparison.
In the method described in Example 2, the pH of the incubation buffer was set at 6.2, 6.6, 7.0, 7.4, 7.8 or 8.2, and the incubation time for ^99mTc(V)-DMS uptake was set at 10 minutes, to examine the effect of pH on the uptake of ^99mTc(V)-DMS by osteoclast and osteoblast. […]

osteoblast = test: Uptake by osteoblast (cellular uptake experiment); type: cell-based, mouse
Description: as §1
Experiment of uptake by cells: The osteoblast or the co-cultured osteoclast was isolated using 35% Percoll and incubated using α-MEM (10% fetal calf serum) at 37° C. in an atmosphere of 5% CO2 and 95% air for 3 hours. […] Then, the cells were lysed with 0.2N NaOH, and radioactivity taken up by the cells was measured using a gamma counter. After completion of the radioactivity measurement, the amount of proteins contained in the cell lysate was measured using BCA Protein Assay Kit (produced by Pierce), and the ^99mTc-DMS uptake per unit protein mass (% dose/mg protein) was obtained. […]

[2] = test system: Na^+-dependent phosphate transporter; test: Participation of sodium ion-dependent phosphate transporter in uptake by osteoclast (phosphate anion, PFA, Na+, pH and cation effects); type: cell-based, mouse; conditions: varied [Pi], PFA 1 or 5 mM, cations, compared with K2H^32PO4, FIGS. 6 through 10
Protocol: In the method described in Example 2, an incubation buffer of pH 7.4 was used for pre-incubation, and the buffer containing ^99mTc(V)-DMS was an incubation buffer of pH 7.4 with the phosphate anion concentration ([Pi]) adjusted to 0 mM, 0.05 mM, 0.1 mM, 0.5 mM, 1.0 mM or 5.0 mM, while the incubation time was set at 5 minutes, to measure the uptake of ^99mTc(V)-DMS by osteoclast.
Furthermore, a similar experiment was carried out except that the buffer containing ^99mTc(V)-DMS was an incubation buffer of pH 7.4 containing 1 mM or 5 mM of phosphonoformic acid (PFA) which was a sodium ion-dependent phosphate transporter inhibitor.
Moreover, a similar experiment was carried out except that the buffer containing ^99mTc(V)-DMS was an incubation buffer of pH 7.4 with the sodium ion concentration ([Na^+]) adjusted in a range from 0.1 mM to 150 mM, and the incubation time for ^99mTc(V)-DMS uptake was set at 30 seconds, to measure the uptake of ^99mTc(V)-DMS into osteoclast.
In the method described in Example 2, the pH of the incubation buffer was set at 6.2, 6.6, 7.0, 7.4, 7.8 or 8.2, and the incubation time for ^99mTc(V)-DMS uptake was set at 30 seconds, to examine effct of pH on the uptake of ^99mTc(V)-DMS into osteoclast. A similar experiment was carried out for K2H^32PO4, to compare the behaviors of ^99mTc(V)-DMS and K2H^32PO4. […]

osteoclast [3] = test: Autoradiography of rat knee joint compared with osteoclast/osteoblast marker staining; type: in vivo, Wistar male rat; conditions: inferred from ^186Re(V)-DMS autoradiography in rat knee joint
Protocol: ^99mTc is unsuitable for autoradiography since it has a half life of 6 hours and is a gamma ray-emitting nuclide. Considering this, a radioisotope of Re that is a homologous element of Tc was used to evaluate the in vivo accumulation of ^99mTc(V)-DMS in osteoclast.
^186Re(V)-DMS prepared according to a method described by Horiuchi et al. (Nucl. Med. Biol. 26: 771-779 (1999)) was administered in an amount of 370 kBq to a Wistar male rat, and the rat was sacrificed 3 hours later. Knee joints were extracted, and 30 μm thick specimens were prepared and autoradiographed. Furthermore, from the same regions, 20 μm thick specimens were prepared and the tartaric acid-resistant acidic phosphatase as an osteoclast marker or the alkaline phosphatase as an osteoblast marker was detected by means of staining. The results of the autoradiography and staining were compared to evaluate the accumulation of ^99mTc(V)-DMS in osteoclast.

## ^99mTc(V)-dimercaptosuccinic acid [^99mTc(V)-DMS]
Osteoclast [1]; pH 6.2 to 8.2, incubation time 10 minutes, FIG. 4
  effect of pH on the cellular uptake by osteoclast: remarkably increases as the pH value decreases
Osteoclast [1]; pH of buffers for both pre-incubation and uptake 6.2, versus 7.4/6.2 and 7.4/7.4, 10 minutes, FIG. 5
  effect of incubation modality (extracellular pH) on the cellular uptake by osteoclast: the uptake of ^99mTc(V)-DMS rises
Osteoclast [1]; time course 5, 10, 30 and 60 minutes, incubation buffer pH 7.4, 37° C., FIG. 2
  cellular uptake by osteoclast (uptake per unit protein mass): taken up by osteoclastic cells in an especially large amount
osteoblast; pH 6.2 to 8.2, incubation time 10 minutes, FIG. 3
  effect of pH on the cellular uptake by osteoblast: does not show any significant difference
osteoblast; time course 5, 10, 30 and 60 minutes, incubation buffer pH 7.4, 37° C., FIG. 1
  cellular uptake by osteoblast (uptake per unit protein mass): taken up by osteoblastic cells in an amount smaller than ^99mTc-HMDP
[2]
  route of uptake by osteoclast: taken up by osteoclast through the Na^+-dependent phosphate transporter
Osteoclast [3]
  accumulation in osteoclast in vivo, inferred from ^186Re(V)-DMS surrogate: accumulation of ^99mTc(V)-DMS in osteoclast is specific
